Reference: patent US9975907B2, “Pyrimidinones as PI3K inhibitors” (Incyte Corporation, priority 2009, dated 2018)

Tests used:
PI3Kδ (p110δ/p85α) = PI3Kδ (p110δ/p85α) (Homo sapiens (Human), UniProt O00329); test: PI3Kδ Scintillation Proximity Assay (Assay A3); type: biochemical; conditions: column b, Assay A3 (SPA), 20 μM ATP
Outline: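 Radiometric SPA: 33P-labelled […] bound to WGA beads after EDTA/ATP quench, counted by scintillation, fitted against log inhibitor for IC50. Reaction: 4 nM PI3Kδ (p110δ/p85α), 20 μM ATP, 20 μM PIP2, pH 6.7 MOPS buffer with MgCl2, DTT, CHAPS, 0.5% DMSO, room temperature, 210 min.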

PI3Kγ = PI3Kγ (Homo sapiens (Human), UniProt P48736); test: PI3K Enzyme Assay A2 ([γ-33P]ATP filter plate), PI3Kγ; type: biochemical; conditions: Assay A2, 1000 μM ATP
PI3Kγ, sequence (P48736 whole entry, species assumed, canonical isoform): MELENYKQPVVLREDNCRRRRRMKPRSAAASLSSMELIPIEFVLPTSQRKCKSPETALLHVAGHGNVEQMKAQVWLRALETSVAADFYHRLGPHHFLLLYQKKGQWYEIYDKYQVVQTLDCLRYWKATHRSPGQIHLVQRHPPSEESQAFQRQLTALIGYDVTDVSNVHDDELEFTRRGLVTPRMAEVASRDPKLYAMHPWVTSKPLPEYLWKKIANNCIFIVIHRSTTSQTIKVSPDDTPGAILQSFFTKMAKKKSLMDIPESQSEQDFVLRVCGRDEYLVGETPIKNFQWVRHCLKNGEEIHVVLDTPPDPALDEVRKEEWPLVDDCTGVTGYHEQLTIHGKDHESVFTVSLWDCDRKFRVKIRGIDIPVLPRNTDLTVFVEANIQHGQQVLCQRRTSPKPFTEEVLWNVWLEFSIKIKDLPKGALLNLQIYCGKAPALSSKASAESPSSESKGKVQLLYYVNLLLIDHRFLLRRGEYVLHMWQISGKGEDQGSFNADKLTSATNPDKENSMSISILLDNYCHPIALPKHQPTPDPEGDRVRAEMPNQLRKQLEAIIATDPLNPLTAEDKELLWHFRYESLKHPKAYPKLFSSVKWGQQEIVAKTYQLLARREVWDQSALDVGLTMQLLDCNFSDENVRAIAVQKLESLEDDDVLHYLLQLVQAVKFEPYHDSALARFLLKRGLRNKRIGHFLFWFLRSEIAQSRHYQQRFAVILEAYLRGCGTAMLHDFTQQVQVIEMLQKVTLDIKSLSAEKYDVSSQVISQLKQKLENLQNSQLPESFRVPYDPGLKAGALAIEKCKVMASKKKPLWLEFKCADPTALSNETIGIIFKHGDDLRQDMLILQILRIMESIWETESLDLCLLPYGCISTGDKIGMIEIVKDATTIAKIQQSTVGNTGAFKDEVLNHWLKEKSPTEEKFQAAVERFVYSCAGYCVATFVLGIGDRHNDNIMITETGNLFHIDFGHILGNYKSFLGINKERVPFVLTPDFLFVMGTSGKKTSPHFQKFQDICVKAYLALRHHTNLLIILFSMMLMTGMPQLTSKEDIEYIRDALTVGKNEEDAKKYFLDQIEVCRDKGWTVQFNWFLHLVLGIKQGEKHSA
Method: Materials: Lipid kinase substrate, phosphoinositol-4,5-bisphosphate (PIP2), was purchased from Echelon Biosciences (Salt Lake City, Utah). PI3K isoforms α, β, δ and γ were purchased from Millipore (Bedford, Mass.). ATP, MgCh, DTT, EDTA, MOPS and CHAPS were purchased from Sigma-Aldrich (St. Louis, Mo.).
The kinase reaction was conducted in clear-bottom 96-well plate from Thermo Fisher Scientific in a final volume of 24 μL. Inhibitors were first diluted serially in DMSO and added to the plate wells before the addition of other reaction components. The final concentration of DMSO in the assay was 0.5%. The PI3K assays were carried out at room temperature in 20 mM MOPS, pH 6.7, 10 mM MgCl2, 5 mM DTT and CHAPS 0.03%. The reaction mixture was prepared containing 50 μM PIP2, kinase and varying concentration of inhibitors. Reactions were initiated by the addition of ATP containing 2.2 μCi [γ-^33P]ATP to a final concentration of 1000 μM. The final concentration of PI3K isoforms α, β, δ and γ in the assay were 1.3, 9.4, 2.9 and 10.8 nM respectively. Reactions were incubated for 180 min and terminated by the addition of 100 μL of 1 M potassium phosphate pH 8.0, 30 mM EDTA quench buffer. A 100 μL aliquot of the reaction solution was then transferred to 96-well Millipore MultiScreen IP 0.45 μm PVDF filter plate (The filter plate was prewetted with 200 μL 100% ethanol, distilled water, and 1 M potassium phosphate pH 8.0, respectively). The filter plate was aspirated on a Millipore Manifold under vacuum and washed with 18×200 μL wash buffer containing 1 M potassium phosphate pH 8.0 and 1 mM ATP. After drying by aspiration and blotting, the plate was air dried in an incubator at 37° C. overnight. Packard TopCount adapter (Millipore) was then attached to the plate followed with addition of 120 μL Microscint 20 scintillation cocktail (Perkin Elmer) in each well. After the plate sealing, the radioactivity of the product was determined by scintillation counting on Topcount (Perkin-Elmer). IC50 determination was performed by fitting the curve of percent control activity versus the log of the inhibitor concentration using the GraphPad Prism 3.0 software. […] See Table 1 for data related to compounds of the invention.

PI3Kδ (p110δ/p85α), sequence (O00329 whole entry, species assumed): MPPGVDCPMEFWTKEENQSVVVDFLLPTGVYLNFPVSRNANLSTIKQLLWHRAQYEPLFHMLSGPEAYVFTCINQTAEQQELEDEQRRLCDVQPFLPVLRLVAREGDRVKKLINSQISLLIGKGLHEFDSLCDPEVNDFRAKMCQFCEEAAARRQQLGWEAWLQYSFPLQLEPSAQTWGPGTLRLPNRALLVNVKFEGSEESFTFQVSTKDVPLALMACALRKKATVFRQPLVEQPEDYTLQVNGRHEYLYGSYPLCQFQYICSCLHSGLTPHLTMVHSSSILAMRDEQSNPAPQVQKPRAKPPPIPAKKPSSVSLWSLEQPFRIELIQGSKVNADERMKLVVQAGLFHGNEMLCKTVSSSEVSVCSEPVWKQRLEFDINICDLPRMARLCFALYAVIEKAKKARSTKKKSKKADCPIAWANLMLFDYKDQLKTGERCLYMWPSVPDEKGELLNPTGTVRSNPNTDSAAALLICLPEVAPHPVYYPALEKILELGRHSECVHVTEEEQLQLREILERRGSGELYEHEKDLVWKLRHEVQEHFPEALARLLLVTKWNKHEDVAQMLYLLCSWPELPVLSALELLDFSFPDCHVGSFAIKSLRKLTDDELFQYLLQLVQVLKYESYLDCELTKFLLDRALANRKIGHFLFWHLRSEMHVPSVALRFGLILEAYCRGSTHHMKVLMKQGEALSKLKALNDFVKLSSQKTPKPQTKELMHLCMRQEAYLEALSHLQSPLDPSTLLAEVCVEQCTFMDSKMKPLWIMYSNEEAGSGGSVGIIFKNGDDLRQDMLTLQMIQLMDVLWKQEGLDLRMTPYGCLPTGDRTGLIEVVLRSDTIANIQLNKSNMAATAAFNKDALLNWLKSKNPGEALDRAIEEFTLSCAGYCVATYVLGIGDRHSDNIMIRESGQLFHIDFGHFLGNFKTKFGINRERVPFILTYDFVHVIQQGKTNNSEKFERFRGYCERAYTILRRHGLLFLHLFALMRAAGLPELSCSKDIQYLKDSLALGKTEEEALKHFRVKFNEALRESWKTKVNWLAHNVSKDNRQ
PI3Kδ (p110δ/p85α), sequence (P27986 whole entry partner, species assumed): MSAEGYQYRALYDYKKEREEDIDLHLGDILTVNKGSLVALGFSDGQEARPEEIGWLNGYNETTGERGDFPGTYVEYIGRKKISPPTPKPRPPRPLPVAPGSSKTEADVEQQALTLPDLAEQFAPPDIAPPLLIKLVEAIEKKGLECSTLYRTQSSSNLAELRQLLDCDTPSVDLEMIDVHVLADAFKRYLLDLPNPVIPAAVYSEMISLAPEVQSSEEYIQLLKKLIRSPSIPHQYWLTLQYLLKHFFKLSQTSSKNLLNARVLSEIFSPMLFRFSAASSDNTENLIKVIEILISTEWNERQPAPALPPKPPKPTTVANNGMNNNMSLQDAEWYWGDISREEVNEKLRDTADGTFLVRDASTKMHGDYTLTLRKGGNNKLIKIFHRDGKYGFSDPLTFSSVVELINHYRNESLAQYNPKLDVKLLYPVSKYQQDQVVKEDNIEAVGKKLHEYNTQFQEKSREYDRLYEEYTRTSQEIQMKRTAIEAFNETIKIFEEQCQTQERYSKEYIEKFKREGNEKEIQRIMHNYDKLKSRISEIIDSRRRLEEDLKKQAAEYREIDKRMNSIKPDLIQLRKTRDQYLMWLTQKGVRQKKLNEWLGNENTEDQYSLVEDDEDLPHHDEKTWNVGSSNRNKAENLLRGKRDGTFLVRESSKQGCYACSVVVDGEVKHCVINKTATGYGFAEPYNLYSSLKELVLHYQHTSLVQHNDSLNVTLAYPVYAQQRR

IC50 (PI3Kδ (p110δ/p85α)) [nM] | IC50 (PI3Kγ) [nM] | SMILES
< 50 | 50 to 100 | Cc1csc2nc(C(C)Nc3nc(N)nc4[nH]cnc34)c(-c3ccccc3)c(=O)n12 (stereo not drawn) [Example 9, 7-{1-[(2-amino-9H-purin-6-yl)amino]ethyl}-3-methyl-6-phenyl-5H-[1,3]thiazolo[3,2-a]pyrimidin-5-one]
< 50 | 100 to 500 | Cc1csc2nc(C(C)Nc3nc(N)nc4[nH]cnc34)c(-c3cccc(F)c3)c(=O)n12 (stereo not drawn) [Example 11, 7-{1-[(2-amino-9H-purin-6-yl)amino]ethyl}-6-(3-fluorophenyl)-3-methyl-5H-[1,3]thiazolo[3,2-a]pyrimidin-5-one]
< 50 | 100 to 500 | Cc1csc2nc(C(C)Nc3nc(N)nc4[nH]cnc34)c(-c3cc(F)cc(F)c3)c(=O)n12 (stereo not drawn) [Example 13, 7-{1-[(2-amino-9H-purin-6-yl)amino]ethyl}-6-(3,5-difluorophenyl)-3-methyl-5H-[1,3]thiazolo[3,2-a]pyrimidin-5-one]
